According to publication PMC9299640, “Incorporation of β‐Alanine in Cu(II) ATCUN Peptide Complexes Increases ROS Levels, DNA Cleavage and Antiproliferative Activity” (Chemistry (Weinheim an Der Bergstrasse, Germany), 2021):

Experiments:
[1] = system: SiHa (cervical carcinoma); test: Antiproliferative activity, sulforhodamine B (SRB) assay; assay type: cell-based, human
Description: (§1) The antiproliferative activity of selected Cu(II) ATCUN complexes was investigated towards different tumor cell lines (HCT116, NCI-H460, SiHa and SW480 cells) and expressed as the IC50 values.
(§2) Table S13. Accumulation of Cu in HCT116 cells after 24 h incubation with Cu-GGH, 1, 3, 4 and CuCl2 (70 µM) as determined by ICP-MS (n = 3), and cytotoxic activity in human cancer cell lines HCT116, NCI-H460, SiHa and SW480 expressed as the IC50 ± SD (in µM) as well as by the residual viable cells after treatment with 70 μM of the respective compound (%) as determined by the SRB assay (exposure time 72 h). accumulated Cu IC50 values […]
(§3) a – indicates no antiproliferative activity observed after treatment with the respective compound at 70 μM for 72 h.
(§4) S-12.1 Determination of IC50 values against HCT116, NCI-H460, SiHa and SW480 […]
(§5) HCT116, SW480 and NCI-H460 cells were supplied by ATCC, while SiHa cells were supplied by Dr. David Cowan, of the Ontario Cancer Institute, Canada. The cells were grown in α-MEM (Life Technologies) supplemented with 5% fetal calf serum (Moregate Biotech) at 37 °C in a humidified incubator with 5% CO2. […]
(§6) in 96-well plates and left to settle for 24 h. Compounds were added as water solutions to the plates in a series of 3-fold dilutions for 72 h before the assay was terminated by addition of 10% trichloroacetic acid (Merck Millipore) at 4 °C for 1 h. Cells were stained […]
(§7) with 0.4% sulforhodamine B (Sigma-Aldrich) in 1% acetic acid for 30 min in the dark at room temperature and then washed with 1% acetic acid to remove unbound dye. The stain was dissolved in unbuffered Tris base (10 mM, Serva) for 30 min on a plate shaker in the dark and quantified on a BioTek EL808 microplate reader at an absorbance of 490 nm with a reference wavelength of 450 nm to determine the percentage of cell-growth inhibition by determining the absorbance of each sample relative to a negative (no inhibitor) and a no-growth control (day 0). IC50 values were calculated with SigmaPlot 12.5 (Systat Software Inc.) using a three-parameter logistic sigmoidal dose−response curve between the calculated growth inhibition and the compound concentration. The presented IC50 values are the mean of at least three independent experiments, where 10 concentrations were tested in duplicate for each compound.
(§8) Ventures), by diluting with a matrix-matched solution with regard to HNO3 and Tm concentration, producing calibration standards with concentrations of 0.5, 1, 3, 5, 7, 10, […]
(§9) The measured Cu concentrations in the cell accumulation samples were in the range of 27–82 μg/L. The reported values are the means of at least three independent accumulation experiments conducted in triplicates with blank wells for each substance to account for unspecific binding of the Cu(II) complexes to the plastic of the well plates.
(§10) Accumulation values have been corrected by subtracting the average amount Cu determined in the cell-free wells.
(§11) Calibration curves for Cu were prepared with concentrations ranging from 0.5–100 µg/L. The limit of detection (LOD) was defined as 3 times the random error in the y-direction (Sy/x) of the calibration curve divided by the slope of the calibration curve. The limit of quantification (LOQ) was defined as 10 times the random error in the y-direction (Sy/x) of the calibration curve divided by the slope of the calibration curve.42 The LOD was determined for Cu as 1.8 μg/L and the LOQ was 5.95 μg/L.

[2] = system: SW480 (colon adenocarcinoma); test: as above; assay type: cell-based, human
Description: as §1, §2, §3, §4, §5, §6, §7, §8, §9, §10, §11

[3] = system: HCT116 (colorectal carcinoma); test: as above; assay type: cell-based, human
Description: as §1, §2, §3, §4, §5, §6, §7, §8, §9, §10, §11

[4] = system: NCI-H460 (non-small cell lung carcinoma); test: as above; assay type: cell-based, human; details: exposure 72 h, 3-fold dilutions, α-MEM + 5% fetal calf serum, 37 °C, mean ± SD of at least three independent experiments
Description: as §1, §2, §3, §4, §5, §6, §7, §8, §9, §10, §11

HCT116 cells = test: Cellular uptake of Cu by ICP-MS; assay type: cell-based, human; details: 70 µM, 24 h, 37 °C, 5% CO2, 4 × 10^5 cells/well, HNO3 lysis, corrected for cell-free wells, n = 3
Description: We aimed to correlate the antiproliferative activity to the accumulation of Cu in HCT116 cells. Therefore, cells were treated for 24 h with complexes Cu−GGH, 1, 3, 4 and CuCl2 (70 μM), and the Cu content of the samples was determined by ICP‐MS (Table S13). […] The higher Cu contents probably lead to enhanced oxidative stress levels in cells, which consequently results in higher antiproliferative activity.
The antiproliferative activity of selected Cu(II) ATCUN complexes was investigated towards different tumor cell lines (HCT116, NCI-H460, SiHa and SW480 cells) and expressed as the IC50 values. Additionally, cellular uptake studies in HCT116 tumor cells were carried out and the amount of Cu was determined with inductively coupled plasma mass spectrometry (ICP-MS).
Table S13. […]
with 0.4% sulforhodamine B (Sigma-Aldrich) in 1% acetic acid for 30 min in the dark at room temperature and then washed with 1% acetic acid to remove unbound dye. The stain was dissolved in unbuffered Tris base (10 mM, Serva) for 30 min on a plate shaker in the dark and quantified on a BioTek EL808 microplate reader at an absorbance of 490 nm with a reference wavelength of 450 nm to determine the percentage of cell-growth inhibition by determining the absorbance of each sample relative to a negative (no inhibitor) and a no-growth control (day 0). […]

CT-DNA = test: DNA melting curves by UV/VIS spectroscopy; assay type: binding, calf
[5] = after treatment with 70 μM, 72 h
[6] = exposure 72 h, 3-fold dilutions, α-MEM + 5% fetal calf serum, 37 °C, mean of at least three independent experiments

IC50 [1, 6]: > 70 µM
IC50 [2, 6]: > 70 µM
IC50 ([3]; exposure 72 h, 3-fold dilutions, α-MEM + 5% fetal calf serum, 37 °C, Cu(II):peptide 1:1.05, mean ± SD of at least three independent experiments): > 70 µM
IC50 [4]: > 70 µM
accumulated Cu in HCT116 (HCT116 cells): 0.754 ± 0.010 μg/4 × 10^5 cells
Compound: [Cl][Cu][Cl] [CuCl2, reference compound]
residual viable cells SiHa [1, 5]: 93 ± 22%
residual viable cells SW480 [2, 5]: – (indicates no antiproliferative activity observed after treatment with the respective compound at 70 μM for 72 h)
residual viable cells HCT116 [3, 5]: 87 ± 6%
ΔTm relative to CT-DNA (CT-DNA; 2.5 µM complex or CuCl2, CT-DNA 50 µM (ref. Tm 78.3 °C), MOPS 50 mM pH 7.4): 3.2 °C
Tm of CT-DNA after treatment (CT-DNA; 2.5 µM complex or CuCl2, CT-DNA 50 µM, MOPS 50 mM pH 7.4, 260 nm, 0.5 °C/min, Cu(II):peptide 1:1.05): 81.5 °C
